Experimental findings from DBAASP are described below.

Some test systems named below: Escherichia coli HB101; Cryptococcus neoformans; Sporothrix schenckii; Escherichia coli C25; Escherichia coli D31; Escherichia coli SBS 363; Salmonella sp.
Holding throughout (assay): ≥ marks a high value that may be exact or a test limit, other limits are often not marked, values filed in µg/mL are converted to µM
Experiment [1] deals with Leishmania major MHOM/IL/67/JERICHO-II.
Experiment [2] deals with Staphylococcus aureus Cowan 1.
Experiment [3] has as its system Bacillus subtilis ATCC 6633.
Experiment [4] deals with Candida albicans ATCC 10231.
In experiment [5] the test system is Candida parapsilosis ATCC 22019.
For experiment [6], the system named is Escherichia coli ATCC 9637.
In experiment [7] the test system is Klebsiella pneumoniae ATCC 27736.
Experiment [8] relates to Pseudomonas aeruginosa ATCC BAA-427.
In experiment [9] the test system is Staphylococcus aureus ATCC 25923.
Experiment [10] relates to Staphylococcus aureus ATCC 29213.
Experiment [11] concerns Staphylococcus aureus ATCC 33592.
Experiment [12] concerns Staphylococcus aureus ATCC 700698.
For experiment [13], the system named is Staphylococcus aureus ATCC 700699.
The subject of experiment [14] is Staphylococcus aureus ATCC BAA-44.
The test system of experiment [15] is Enterococcus faecalis ATCC 12953.
For experiment [16], the system named is Escherichia coli ATCC 8739.
The test system of experiment [17] is Escherichia coli KpC+001812446.
The test system of experiment [18] is Escherichia coli KpC+002101123.
For experiment [19], the system named is Klebsiella pneumoniae ATCC 13885.
For experiment [20], the system named is Klebsiella pneumoniae KpC+001825971.
Experiment [21] deals with Proteus mirabilis ATCC 25933.
In experiment [22] the test system is Pseudomonas aeruginosa ATCC 15442.
Experiment [23] has as its system Salmonella enterica subsp. enterica serovar Typhimurium ATCC 14028.
Experiment [24] relates to Staphylococcus aureus ATCC 33591.
The subject of experiment [25] is Streptococcus pyogenes ATCC 19615.
Experiment [26] deals with Alcaligenes faecalis ATCC 8750.
Experiment [27] relates to Enterobacter cloacae beta-12.
Experiment [28] has as its system Pseudomonas aeruginosa ATCC 27853.
For experiment [29], the system named is Salmonella enterica subsp. arizonae.
For experiment [30], the system named is Serratia marcescens ATCC 4112.
Experiment [31] has as its system Streptococcus mutans UA159.
The subject of experiment [32] is Streptococcus sanguinis ATCC 10556.
In experiment [33] the test system is Streptococcus sobrinus ATCC 6715.

Structures are written as SMILES. ≈ marks a conversion by molar mass, not a printed value. Some results are limits rather than exact numbers.

One may read the MIC as the least concentration at which growth counts as inhibited. High values mean a need for much substance, low ones inhibition by little substance. On to `CSCC[C@H](NC(=O)[C@@H](NC(=O)CNC(=O)[C@H](CC(C)C)NC(=O)[C@H](CCCCN)NC(=O)[C@H](CCCCN)NC(=O)[C@H](CC(C)C)NC(=O)[C@H](CCSC)NC(=O)[C@@H](NC(=O)[C@H](CCCCN)NC(=O)[C@H](Cc1c[nH]c2ccccc12)NC(=O)[C@H](CC(C)C)NC(=O)[C@H](C)N)[C@@H](C)O)[C@@H](C)O)C(N)=O` [ALWKTMLKKLGTM], for which the MIC (against Escherichia coli HB101; in [1]; in [2]) was at least 50.6 µM in each case.
As for `CC[C@H](C)[C@H](NC(=O)[C@H](C)NC(=O)CNC(=O)[C@H](CCCCN)NC(=O)[C@@H](NC(=O)[C@H](CC(C)C)NC(=O)[C@H](Cc1c[nH]c2ccccc12)NC(=O)CNC(=O)[C@H](Cc1ccccc1)NC(=O)[C@@H](N)Cc1ccccc1)[C@@H](C)CC)C(=O)N[C@@H](Cc1cnc[nH]1)C(=O)N[C@@H](C)C(=O)N1CCC[C@H]1C(=O)N[C@@H](CCCCN)C(=O)N[C@@H](C)C(=O)N[C@H](C(=O)N[C@@H](Cc1cnc[nH]1)C(=O)N1CCC[C@H]1C(=O)N[C@@H](CC(C)C)C(=O)N[C@H](C(=O)N[C@@H](Cc1cnc[nH]1)C(=O)N[C@@H](CCCN=C(N)N)C(=O)N[C@@H](CCCN=C(N)N)C(=O)N[C@@H](CCCN=C(N)N)C(=O)N[C@@H](Cc1cnc[nH]1)C(=O)O)[C@@H](C)CC)[C@@H](C)CC` [FFGWLIKGAIHAPKAIHPLIHRRRH], the MIC in [3] is 3 µM (≈ 8.92 µg/mL); in experiment [4], over 30 µM; in experiment [5] it was 30 µM (≈ 89.2 µg/mL); in the experiment with Cryptococcus neoformans it was 30 µM (≈ 89.2 µg/mL); in experiment [6], 6.8 µM (≈ 20.2 µg/mL); in experiment [7], 27.2 µM (≈ 80.9 µg/mL). In addition, the MIC in experiment [8] was 13.6 µM (≈ 40.4 µg/mL); in the experiment on Sporothrix schenckii, 30 µM (≈ 89.2 µg/mL); in experiment [9] it was 3 µM (≈ 8.92 µg/mL); in experiment [10], 3 µM (≈ 8.92 µg/mL); in experiment [11], 1.6 µM (≈ 4.76 µg/mL); in experiment [12] it was 3 µM (≈ 8.92 µg/mL). Also, the MIC in experiment [13] and in experiment [14] was 3 µM (≈ 8.92 µg/mL) throughout.
In the case of `CC[C@H](C)[C@H](NC(=O)[C@H](CCCCN)NC(=O)CNC(=O)[C@H](CC(C)C)NC(=O)[C@H](Cc1ccccc1)NC(=O)[C@H](CCC(N)=O)NC(=O)[C@H](Cc1ccccc1)NC(=O)[C@@H](NC(=O)[C@@H](NC(=O)[C@@H](NC(=O)[C@@H]1CCCN1C(=O)[C@H](CC(C)C)NC(=O)[C@@H](N)Cc1ccccc1)[C@@H](C)CC)[C@@H](C)CC)C(C)C)C(=O)N[C@H](C(=O)N[C@@H](Cc1cnc[nH]1)C(=O)N[C@@H](Cc1cnc[nH]1)C(=O)N[C@H](C(=O)NCC(=O)N[C@@H](CC(N)=O)C(=O)N[C@@H](Cc1ccccc1)C(=O)N[C@H](C(=O)N[C@@H](Cc1cnc[nH]1)C(=O)NCC(=O)N[C@@H](Cc1ccccc1)C(=O)N[C@@H](CO)C(=O)N[C@@H](Cc1cnc[nH]1)C(=O)N[C@H](C(=O)N[C@@H](Cc1ccccc1)C(N)=O)C(C)C)C(C)C)C(C)C)[C@@H](C)CC` [FLPIIVFQFLGKIIHHVGNFVHGFSHVF], the MIC in experiment [3] came out at 1.5 µM (≈ 4.87 µg/mL); in experiment [15], 1.5 µM (≈ 4.87 µg/mL); in experiment [16] it was 12 µM (≈ 39 µg/mL); in [17], 6 µM (≈ 19.5 µg/mL); in experiment [18], 6 µM (≈ 19.5 µg/mL); in experiment [19], 3 µM (≈ 9.75 µg/mL). The MIC is 3 µM (≈ 9.75 µg/mL) in [20]; 6 µM (≈ 19.5 µg/mL) in [21]; 3 µM (≈ 9.75 µg/mL) in experiment [22]; 3 µM (≈ 9.75 µg/mL) in [23]; 24 µM (≈ 78 µg/mL) in [10]; 6 µM (≈ 19.5 µg/mL) in [24]. For the same compound, in experiment [25], the MIC is 6 µM (≈ 19.5 µg/mL).
For the compound `CC[C@H](C)[C@H](NC(=O)[C@H](Cc1ccc(O)cc1)NC(=O)[C@H](CCCN=C(N)N)NC(=O)[C@H](CCCN=C(N)N)NC(=O)[C@@H](N)CCCN=C(N)N)C(=O)NCC(=O)N[C@@H](CCCN=C(N)N)C(=O)N[C@@H](Cc1ccc(O)cc1)C(=O)N[C@H](C(=O)N[C@@H](CCCN=C(N)N)C(=O)N[C@@H](Cc1ccccc1)C(=O)N[C@@H](Cc1c[nH]c2ccccc12)C(=O)N[C@@H](CCCCN)C(N)=O)C(C)C` [RRRYIGRYVRFWK], the MIC with Escherichia coli C25 amounted to 2.1 µM (≈ 3.9 µg/mL); in experiment [9] it was 8.4 µM (≈ 15.6 µg/mL).
Turning to `CC(C)[C@H](NC(=O)[C@H](C)NC(=O)[C@@H]1CCCN1C(=O)[C@H](Cc1ccc(O)cc1)NC(=O)[C@@H](N)CCCN=C(N)N)C(=O)NCC(=O)N[C@@H](Cc1ccc(O)cc1)C(=O)N[C@H](C(=O)O)[C@@H](C)O` [RYPAVGYT], the MIC in [26] stood at 6.26 µM (≈ 5.8 µg/mL); in experiment [27], 3.13 µM (≈ 2.9 µg/mL); with Escherichia coli D31, 6.26 µM (≈ 5.8 µg/mL); against Escherichia coli SBS 363, 6.26 µM (≈ 5.8 µg/mL); in experiment [28], 6.26 µM (≈ 5.8 µg/mL); in [29] it was 6.26 µM (≈ 5.8 µg/mL). The MIC (with Salmonella sp.; in experiment [30]) was 6.26 µM (≈ 5.8 µg/mL) in each case.
`NCCCC[C@H](NC(=O)[C@H](Cc1c[nH]c2ccccc12)NC(=O)[C@H](CCCCN)NC(=O)[C@H](CCCCN)NC(=O)[C@H](Cc1ccccc1)NC(=O)[C@H](Cc1ccccc1)NC(=O)[C@H](CCCCN)NC(=O)[C@H](CCCCN)NC(=O)[C@H](Cc1ccccc1)NC(=O)[C@H](Cc1ccccc1)NC(=O)[C@H](CCCCN)NC(=O)[C@H](Cc1ccccc1)NC(=O)[C@@H](N)Cc1c[nH]c2ccccc12)C(=O)O` [WFKFFKKFFKKWK]: the MIC in experiment [31], in experiment [32] and in [33] was 4.22 µM (≈ 8 µg/mL) throughout.
